Laboratory results: the NIST ThermoML archive (doi:10.1021/je030147g)

Legend:
[1] = refractive index (Na D-line) (dimensionless); xn = mol fraction of the nth substance listed; conditions: 101.33 kPa, Liquid
[2] = xn = mol fraction of the nth substance listed; conditions: 101.33 kPa, Liquid

CCN(CC)CC [triethylamine] + CCCCN(CCCC)CCCC
x2 = 0
Conditions	mass density, 298.15 K [kg/m3]	mass density, 303.15 K [kg/m3]	mass density, 308.15 K [kg/m3]	refractive index, 298.15 K	refractive index, 303.15 K	refractive index, 308.15 K	speed of sound, 298.15 K [m/s]	viscosity, 298.15 K [mPa·s]	viscosity, 303.15 K [mPa·s]	viscosity, 308.15 K [mPa·s]
[1]	–	–	–	1.3992	1.3958	1.3929	–	–	–	–
[2]	723.3	718.6	713.7	–	–	–	1123	0.367	0.349	0.332

ClC(Cl)=C(Cl)Cl [tetrachloroethene] + CCCCN(CCCC)CCCC
x2 = 0
Conditions	mass density, 298.15 K [kg/m3]	mass density, 303.15 K [kg/m3]	mass density, 308.15 K [kg/m3]	refractive index, 298.15 K	refractive index, 303.15 K	refractive index, 308.15 K	speed of sound, 298.15 K [m/s]	viscosity, 298.15 K [mPa·s]	viscosity, 303.15 K [mPa·s]	viscosity, 308.15 K [mPa·s]
[1]	–	–	–	1.5036	1.5005	1.4978	–	–	–	–
[2]	1616	1607.5	1597.5	–	–	–	1033	0.875	0.831	0.791

CCCCN(CCCC)CCCC [tributylamine] + c1ccncc1
Conditions	mass density, 298.15 K [kg/m3]	mass density, 303.15 K [kg/m3]	mass density, 308.15 K [kg/m3]	refractive index, 298.15 K	refractive index, 303.15 K	refractive index, 308.15 K	speed of sound, 298.15 K [m/s]	viscosity, 298.15 K [mPa·s]	viscosity, 303.15 K [mPa·s]	viscosity, 308.15 K [mPa·s]
[1], x1 = 0.0977	–	–	–	1.4866	1.483	1.4795	–	–	–	–
[1], x1 = 0.1951	–	–	–	1.4708	1.4685	1.4662	–	–	–	–
[1], x1 = 0.2949	–	–	–	1.4606	1.4574	1.4542	–	–	–	–
[1], x1 = 0.3938	–	–	–	1.4513	1.4491	1.447	–	–	–	–
[1], x1 = 0.4898	–	–	–	1.4464	1.4428	1.4392	–	–	–	–
[1], x1 = 0.5884	–	–	–	1.4403	1.4376	1.4348	–	–	–	–
[1], x1 = 0.6899	–	–	–	1.4359	1.4335	1.4311	–	–	–	–
[1], x1 = 0.7846	–	–	–	1.4333	1.43	1.4268	–	–	–	–
[1], x1 = 0.8869	–	–	–	1.4303	1.4277	1.4252	–	–	–	–
[1], x1 = 1	–	–	–	1.4276	1.4255	1.4228	–	–	–	–
[2], x1 = 0.0977	927.2	922.3	917.4	–	–	–	1363	0.895	0.833	0.771
[2], x1 = 0.1951	890.5	885.6	880.7	–	–	–	1333	0.914	0.849	0.783
[2], x1 = 0.2949	862.6	858	853.3	–	–	–	1308	0.941	0.872	0.804
[2], x1 = 0.3938	841.3	836.8	832.2	–	–	–	1290	0.971	0.898	0.825
[2], x1 = 0.4898	824.7	820.3	815.9	–	–	–	1282	1.002	0.925	0.848
[2], x1 = 0.5884	810.8	806.5	802.1	–	–	–	1278	1.038	0.957	0.876
[2], x1 = 0.6899	799	794.7	790.5	–	–	–	1275	1.077	0.993	0.909
[2], x1 = 0.7846	789.9	785.7	781.6	–	–	–	1271	1.122	1.031	0.94
[2], x1 = 0.8869	781.6	777.5	773.3	–	–	–	1266	1.175	1.077	0.979
[2], x1 = 1	773.9	769.2	765.7	–	–	–	1262	1.239	1.124	1.028
